Source: ChEMBL document CHEMBL1128293, “4,4-Disubstituted piperidines: a new class of NK1 antagonist” (J Med Chem, 1995)

Biological target: Substance-P receptor (Homo sapiens, UniProt P25103)
Assay: Antagonistic activity against human Tachykinin receptor 1
Type: functional

Substance-P receptor, sequence (P25103 whole entry): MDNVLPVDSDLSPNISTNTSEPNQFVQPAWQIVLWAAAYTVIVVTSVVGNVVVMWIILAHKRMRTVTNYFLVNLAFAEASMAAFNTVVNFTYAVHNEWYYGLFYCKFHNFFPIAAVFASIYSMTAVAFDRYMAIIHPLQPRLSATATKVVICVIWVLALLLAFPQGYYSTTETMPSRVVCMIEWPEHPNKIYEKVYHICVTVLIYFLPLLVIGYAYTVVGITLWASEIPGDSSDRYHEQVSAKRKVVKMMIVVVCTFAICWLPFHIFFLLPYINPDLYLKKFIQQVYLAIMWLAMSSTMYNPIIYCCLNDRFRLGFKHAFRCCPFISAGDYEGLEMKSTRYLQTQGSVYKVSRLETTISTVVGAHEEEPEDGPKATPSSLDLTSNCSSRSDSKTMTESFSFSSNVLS

Row | Compound | IC50
1 | Clc1cc(Cl)cc(COCC2(c3ccccc3)CCNCC2)c1 | 4.6 nM
2 | Cc1cc(C)cc(COCC2(c3ccccc3)CCNCC2)c1 | 9 nM
3 | FC(F)(F)c1cccc(COCC2(c3ccccc3)CCNCC2)c1 | 57 nM
